Measurements from patent US6323315A, “Dolastatin peptides” (priority 2000, dated 2001).

Key:
[1] = system: human lymphoma cell lines; conditions: cited from earlier work
tubulin = conditions: cited from earlier work
[2] = system: P388 lymphocytic leukemia (PS system) cell line; conditions: cited from earlier work
[3] = system: P-388 Lymphocytic Leukemia; experiment: Murine P-388 lymphocytic leukemia cell line inhibition; format: cell-based; conditions: P-388 mouse leukemia
A498 (renal cancer) = experiment: in vitro cytotoxicity, cultured cancer cell panel: A498; format: cell-based, Human; conditions: for GI-50: A498, renal, 48 hours; for LC-50 / TGI: A498; for LC-50: -50% growth; for TGI: total growth inhibition (0% growth)
Description: (§1) Compounds prepared according to Examples 1-14 above were evaluated for in vitro cytotoxicity against a panel of cultured cancer cells, including the cell lines OVCAR-3 (ovarian cancer), SF-295 (central nervous system), A498 (renal cancer), NCI-H460 (non-small lung carcinoma), KM20L2 (colon cancer) and SK-MEL-5 (melanoma). For each cell line, each compound was tested at 5 concentrations, 100 μg/mL, 10 μg/mL, 1 μg/mL, 0.1 μg/mL and 0.01 μg/mL. Percent growth values were calculated for each concentration, and the two or three concentrations with growth values above, below or near 50% growth (relative to control) were used to calculate the ED50 value using a linear regression calculation. In cases in which 50% growth inhibition was not observed for any of the concentrations, the ED50 value was expressed as ED50 >100 μg/mL. If the growth inhibition was greater than 50% for each concentration, the ED50 was expressed as <0.01 μg/mL. Similar calculations were performed for total growth inhibition (TGI; 0% growth) and LC50 (-50% growth).
(§2) At the start of each experiment, cells from the in vitro cell culture were inoculated into tubes or microtiter plates. One set of control tubes/plates was immediately counted to determine the cell count at the beginning of the experiment. This is the "baseline count" or T0 reading. After 48 hours, a second set of control tubes/plates is analyzed to determine the control growth value. The growth or death of cells relative to the T0 value is used to define the percent growth.

[4] = system: NCI-H460 (non-small lung carcinoma); experiment: in vitro cytotoxicity, cultured cancer cell panel: NCI-H460; format: cell-based, Human; conditions: for GI-50: NCI-H460, lung-NSC, 48 hours; for LC-50 / TGI: NCI-H460; for LC-50: -50% growth; for TGI: total growth inhibition (0% growth)
Description: as §1, §2

SK-MEL-5 (melanoma) = experiment: in vitro cytotoxicity, cultured cancer cell panel: SK-MEL-5; format: cell-based, Human; conditions: for GI-50: SK-MEL-5, melanoma, 48 hours; for LC-50 / TGI: SK-MEL-5; for LC-50: -50% growth; for TGI: total growth inhibition (0% growth)
Description: as §1, §2

KM20L2 (colon cancer) = experiment: in vitro cytotoxicity, cultured cancer cell panel: KM20L2; format: cell-based, Human; conditions: for GI-50: KM20L2, colon, 48 hours; for LC-50 / TGI: KM20L2; for LC-50: -50% growth; for TGI: total growth inhibition (0% growth)
Description: as §1, §2

[5] = system: SF-295 (central nervous system); experiment: in vitro cytotoxicity, cultured cancer cell panel: SF-295; format: cell-based, Human; conditions: for GI-50: SF-295, CNS, 48 hours; for LC-50 / TGI: SF-295; for LC-50: -50% growth; for TGI: total growth inhibition (0% growth)
Description: as §1, §2

OVCAR-3 (ovarian cancer) = experiment: in vitro cytotoxicity, cultured cancer cell panel: OVCAR-3; format: cell-based, Human; conditions: for GI-50: OVCAR-3, ovarian, 48 hours; for TGI / LC-50: OVCAR-3; for TGI: total growth inhibition (0% growth); for LC-50: -50% growth
Description: as §1, §2

Row | Substance | growth of four different human lymphoma cell lines [1] | tubulin polymerization (tubulin) | ED50 [3] [ng/mL] | GI-50 (A498 (renal cancer)) [µg/mL] | LC-50 (A498 (renal cancer)) [µg/mL] | TGI (A498 (renal cancer)) [ng/mL] | GI-50 [4] [µg/mL] | LC-50 [4] [µg/mL] | TGI [4] [ng/mL] | GI-50 (SK-MEL-5 (melanoma)) [µg/mL] | LC-50 (SK-MEL-5 (melanoma)) [µg/mL] | TGI (SK-MEL-5 (melanoma)) [ng/mL] | GI-50 (KM20L2 (colon cancer)) [µg/mL] | LC-50 (KM20L2 (colon cancer)) [µg/mL] | TGI (KM20L2 (colon cancer)) [ng/mL] | GI-50 [5] [µg/mL] | GI-50 (OVCAR-3 (ovarian cancer)) [µg/mL] | TGI (OVCAR-3 (ovarian cancer)) [ng/mL] | LC-50 [5] [µg/mL] | TGI [5] [ng/mL] | other results
1 | Dolastatin 10 | effectively inhibit | effectively inhibit |  |  |  |  |  |  |  |  |  |  |  |  |  |  |  |  |  |  | 
2 | Dolastatin 15 | effectively inhibit | effectively inhibit |  |  |  |  |  |  |  |  |  |  |  |  |  |  |  |  |  |  | growth of P388 lymphocytic leukemia (PS system) cell line [2]: inhibits the growth
3 | Dov-Val-Dil-Dap 1-bicyclo[3.3.0]octane amide [Compound 13b] |  |  | 2.2 | 0.002 | > 0.01 | > 10 | 0.00047 | > 0.01 | > 10 | 0.0007 | > 0.01 | > 10 | 0.00036 | > 0.01 | > 10 |  |  |  |  |  | 
4 | Dov-Val-Dil-Dap 2-[p-aminophenyl]ethylamide [Compound 29d] |  |  | 0.338 | > 0.01 |  |  | 0.00013 |  | 0.87 | 0.00023 |  |  | 4.9e-05 |  | > 10 | 0.00053 | 5e-05 | 0.79 |  |  | 
5 | Dov-Val-Dil-Dap-Met 1-(bicyclo[3.3.0]octane) Amide [Compound 12d] |  |  |  | 0.00048 | > 0.01 | > 10 | 0.00029 | > 0.01 | 4 | 0.00044 | > 0.01 | > 10 | 0.0003 | > 0.01 | 0.9 | 0.00047 | 0.00031 | > 10 | > 0.01 | > 10 | LC-50 (OVCAR-3 (ovarian cancer)): > 0.01 µg/mL
6 | Dov-Val-Dil-Dap-Phe Amide [Compound 28d] |  |  | 0.00255 | 3.4e-06 | > 0.0001 | > 0.1 | 4.1e-07 | > 0.0001 | > 0.1 | 5.6e-07 | > 0.0001 | > 0.1 | 2e-07 | > 0.0001 | 0.0041 | 6.1e-07 | 3e-07 | 0.011 | > 0.0001 | > 0.1 | LC-50 (OVCAR-3 (ovarian cancer)): > 0.0001 µg/mL
